Each compound was assayed against human Autotaxin protein (Homo sapiens, UniProt Q13822) (assay: Evaluation of inhibitory activity against human Autotaxin protein (18:1 LysoPC substrate, choline assay kit, absorbance 570 nm)). Conditions: compound at 500 nM, 2 hours at 37° C.
Type: biochemical
Experimental: The solution of each synthesized compound (80 uM, 100% dimethyl sulfoxide) was sequentially diluted 5 times with dimethyl sulfoxide to prepare 6 concentrations. Each concentration of compound was diluted two-fold with 1× test buffer (50 mM Tris-Cl (pH 8.0), 5 mM KCl, 1 mM CaCl2), 1 mM MgCl2, 140 mM NaCl, deionized water, 1 mg/mL BSA), and 1 uL (1.25% dimethyl sulfoxide) of this diluted mixture was dispensed into each well of a 96 well clear round bottom plate. 9 uL of 1× test buffer were added to each well, followed by the addition of 20 uL of 240 nM human Autotaxin protein (buffer: 50 mM Tris-HCl, pH 8.0, with 150 mM sodium chloride and 20% glycerol). 10 uL of sonicated 360 uM 18:1 LysoPC (diluted with 1× test buffer) were added to each well. The reaction was performed for 2 hours in a shaking incubator at 37° C., and a secondary reaction mixture (choline assay kit, KA1662) (65 uL of 1× test buffer: 1 uL of choline oxidase: 1 uL of dye probe) was prepared. 60 uL of the secondary reaction mixture were added to the reaction plate and reacted on a shaker for 30 minutes. Using a SpectraMax iD3 microplate reader, the absorbance was measured at a wavelength of 570 nm. The percentage of inhibition activity (% inhibition) was calculated by the Formula: (1−Absorbancetestgroup/Absorbancecontrol group)×100.
With c1ccc2c(c1)CC(Nc1ncc(C3CC(N4CCC(c5cnn[nH]5)CC4)=NO3)cn1)C2 (stereo not drawn) [Example 35, N-indan-2-yl-5-[3-[4-(1H-triazol-5-yl)-1-piperidyl]-4,5-dihydroisoxazol-5-yl]pyrimidin-2-amine] the inhibition at 0.5 µM was 96%.
For Fc1cc2c(cc1F)CC(Nc1ncc(-c3nnc(N4CCC(c5nnc(C(F)F)o5)CC4)o3)cn1)C2 [Example 25, N-(5,6-difluoro-2,3-dihydro-1H-inden-2-yl)-5-(5-(4-(5-(difluoromethyl)-1,3,4-oxadiazol-2-yl)piperidin-1-yl)-1,3,4-oxadiazol-2-yl)pyrimidin-2-amine], the inhibition at 0.5 µM was 31.1%.
Compound O=C(/C=C/c1cnc(NC2Cc3cc(F)c(F)cc3C2)nc1)N1CCC(c2cnn[nH]2)CC1 [Example 30, (E)-1-(4-(1H-1,2,3-triazol-5-yl)piperidin-1-yl)-3-(2-((5,6-difluoro-2,3-dihydro-1H-inden-2-yl)amino)pyrimidin-5-yl)prop-2-en-1-one] has an inhibition at 0.5 µM of 97.8%.
With OC1CN(C2CCN(c3nnc(-c4cnc(NC5Cc6cc(F)c(F)cc6C5)nc4)o3)CC2)C1 [Example 64, 1-(1-(5-(2-((5,6-Difluoro-2,3-dihydro-1H-inden-2-yl)amino)pyrimidin-5-yl)-1,3,4-oxadiazol-2-yl)piperidin-4-yl)azetidin-3-ol] the inhibition at 0.5 µM was 28.1%.
Work on O=C(CCc1cnc(NC2Cc3ccccc3C2)nc1)N1CCC(c2cnc[nH]2)CC1 [Example 18, 1-(4-(1H-Imidazol-5-yl)piperidin-1-yl)-3-(2-((2,3-dihydro-1H-inden-2-yl)amino)pyrimidin-5-yl)propan-1-one] yielded an inhibition at 0.5 µM of 85%.
For c1ccc2c(c1)CC(Nc1ncc(-c3cc(N4CCC(c5cnn[nH]5)CC4)no3)cn1)C2 [Example 36, 5-(3-(4-(1H-1,2,3-triazol-5-yl)piperidin-1-yl)isoxazol-5-yl)-N-(2,3-dihydro-1H-inden-2-yl)pyrimidin-2-amine], the inhibition at 0.5 µM was 53.4%.
Fc1cc2c(cc1F)CC(Nc1ncc(-c3nnc(N4CCC(c5ncon5)CC4)o3)cn1)C2 [Example 26, 5-(5-(4-(1,2,4-Oxadiazol-3-yl)piperidin-1-yl)-1,3,4-oxadiazol-2-yl)-N-(5,6-difluoro-2,3-dihydro-1H-inden-2-yl)pyrimidin-2-amine] showed an inhibition at 0.5 µM of 27.9%.
With c1cc2c(cc1CNc1ncc(-c3nnc(N4CCC(c5cnn[nH]5)CC4)o3)cn1)OCO2 [Example 55, 5-(5-(4-(1H-1,2,3-triazol-5-yl)piperidin-1-yl)-1,3,4-oxadiazol-2-yl)-N-(benzo[d][1,3]dioxol-5-ylmethyl)pyrimidin-2-amine] the inhibition at 0.5 µM was 52%.
FC(F)c1nnc(C2CCN(C3=NOC(c4cnc(NC5Cc6ccccc6C5)nc4)C3)CC2)o1 (stereo not drawn) [Example 51, 5-(3-(4-(5-(Difluoromethyl)-1,3,4-oxadiazol-2-yl)piperidin-1-yl)-4,5-dihydroisoxazol-5-yl)-N-(2,3-dihydro-1H-inden-2-yl)pyrimidin-2-amine] was tested, and the inhibition at 0.5 µM was 13.2%.
For O=C(NO)C1CCN(c2nnc(-c3cnc(NC4Cc5cc(F)c(F)cc5C4)nc3)o2)CC1 [Example 69, 1-(5-(2-((5,6-Difluoro-2,3-dihydro-1H-inden-2-yl)amino)pyrimidin-5-yl)-1,3,4-oxadiazol-2-yl)-N-hydroxypiperidine-4-carboxamide], the inhibition at 0.5 µM was 66.8%.
O=C(CCCc1nnc(NC2Cc3ccccc3C2)s1)N1CCC(c2cnc[nH]2)CC1 [Example 20, 1-(4-(1H-Imidazol-5-yl)piperidin-1-yl)-4-(5-((2,3-dihydro-1H-inden-2-yl)amino)-1,3,4-thiadiazol-2-yl)butan-1-one] was tested, and the inhibition at 0.5 µM was 14%.
Compound Clc1cc(Cl)cc(CNc2ncc(-c3nnc(N4CCC(c5cnn[nH]5)CC4)o3)cn2)c1 [Example 15, 5-(5-(4-(1H-1,2,3-Triazol-5-yl)piperidin-1-yl)-1,3,4-oxadiazol-2-yl)-N-(3,5-dichlorobenzyl)pyrimidin-2-amine] has an inhibition at 0.5 µM of 100%.
Work on c1ccc2c(c1)CC(Nc1ncc(CCCN3CCC(c4c[nH]nn4)CC3)cn1)C2 [Example 62, 5-(3-(4-(1H-1,2,3-triazol-4-yl)piperidin-1-yl)propyl)-N-(2,3-dihydro-1H-inden-2-yl)pyrimidin-2-amine] yielded an inhibition at 0.5 µM of 70.2%.
For Fc1ccc(CNc2ncc(-c3nnc(N4CCC(c5cnn[nH]5)CC4)o3)cn2)cc1F [Example 58, 5-(5-(4-(1H-1,2,3-triazol-5-yl)piperidin-1-yl)-1,3,4-oxadiazol-2-yl)-N-(3,4-difluorobenzyl)pyrimidin-2-amine], the inhibition at 0.5 µM was 84%.
For O=C(CCCc1nnc(NC2Cc3ccccc3C2)o1)N1CCC(c2cnn[nH]2)CC1 [Example 21, 1-(4-(1H-1,2,3-Triazol-5-yl)piperidin-1-yl)-4-(5-((2,3-dihydro-1H-inden-2-yl)amino)-1,3,4-oxadiazol-2-yl)butan-1-one], the inhibition at 0.5 µM was 64%.
Fc1cc2c(cc1F)CC(Nc1ncc(-c3nnc(N4CCC(N5CCOCC5)CC4)o3)cn1)C2 [Example 63, N-(5,6-difluoro-2,3-dihydro-1H-inden-2-yl)-5-(5-(4-morpholinopiperidin-1-yl)-1,3,4-oxadiazol-2-yl)pyrimidin-2-amine] was tested, and the inhibition at 0.5 µM was 42.9%.
Cc1nn[nH]c1C1CCN(c2nnc(-c3cnc(NC4Cc5cc(F)c(F)cc5C4)nc3)o2)CC1 [Example 29, N-(5,6-difluoro-2,3-dihydro-1H-inden-2-yl)-5-(5-(4-(4-methyl-1H-1,2,3-triazol-5-yl)piperidin-1-yl)-1,3,4-oxadiazol-2-yl)pyrimidin-2-amine] was tested, and the inhibition at 0.5 µM was 90.8%.
In the case of O=C(O)CC1CCN(c2nnc(-c3cnc(NC4Cc5cc(F)c(F)cc5C4)nc3)o2)CC1 [Example 68, 2-(1-(5-(2-((5,6-Difluoro-2,3-dihydro-1H-inden-2-yl)amino)pyrimidin-5-yl)-1,3,4-oxadiazol-2-yl)piperidin-4-yl)acetic acid], the inhibition at 0.5 µM is reported as 87.1%.
For Fc1cc(F)cc(CNc2ncc(-c3nnc(N4CCC(c5cnn[nH]5)CC4)o3)cn2)c1 [Example 57, 5-(5-(4-(1H-1,2,3-triazol-5-yl)piperidin-1-yl)-1,3,4-oxadiazol-2-yl)-N-(3,5-difluorobenzyl)pyrimidin-2-amine], the inhibition at 0.5 µM was 88.1%.
In the case of c1cc2c(cc1CNc1ncc(-c3cc(N4CCC(c5cnn[nH]5)CC4)no3)cn1)OCO2 [Example 46, N-(1,3-benzodioxol-5-ylmethyl)-5-[3-[4-(1H-triazol-5-yl)-1-piperidyl]isoxazol-5-yl]pyrimidin-2-amine], the “inhibition (%) at 500 nM” value is reported as 1%.
Cc1nc(NC2Cc3ccc(Br)cc3C2)ncc1-c1nnc(N2CCC(c3cnn[nH]3)CC2)o1 (stereo not drawn) [Example 60, 5-(5-(4-(1H-1,2,3-triazol-5-yl)piperidin-1-yl)-1,3,4-oxadiazol-2-yl)-N-(5-bromo-2,3-dihydro-1H-inden-2-yl)-4-methylpyrimidin-2-amine] gave an inhibition at 0.5 µM of 95.3%.

Source: patent US12145929B2, “Piperidine derivative and pharmaceutical composition for inhibiting autotaxin comprising same” (NEXTGEN BIOSCIENCE CO., LTD., priority 2021, dated 2024)
